| SMILES | melting point [°C] |
| --- | --- |
| CCC(=O)Nc1ccc2occ(CCN(C)C)c2n1.O=C(O)C(=O)O | 153 to 155 |
| Cc1oc2ccc(NC(=O)c3cccs3)nc2c1CCN(C)C.O=C(O)C(=O)O | 211 to 212 |
| Cc1oc2ccc(NC(=O)c3ccc(F)cc3)nc2c1CCN(C)C.O=C(O)C(=O)O | 136 to 138 |
| CN(C)CCc1coc2ccc(NC(=O)c3ccc(F)cc3)nc12.O=C(O)C(=O)O | 124 to 126 |
| CN(C)CCc1coc2ccc(NC(=O)c3cccs3)nc12.O=C(O)C(=O)O | 68 to 69 |
| CCC(=O)Nc1ccc2oc(C)c(CCN(C)C)c2n1.O=C(O)C(=O)O | 168 to 170 |
| CN(C)CCc1coc2ccc(NC(=O)c3ccccc3)nc12.O=C(O)C(=O)O | 65 to 66 |
| Cc1oc2ccc(NC(=O)c3ccccc3)nc2c1CCN(C)C | 119 to 120 |
